# Measurements as given in article PMC9014415, “Repositioning of a Diaminothiazole Series Confirmed to Target the Cyclin-Dependent Kinase CRK12 for Use in the Treatment of African Animal Trypanosomiasis” (Journal of Medicinal Chemistry, 2022).
# Biological target: T1, Phosphoglycerate kinase (PGK) (Trypanosoma brucei brucei, UniProt P07378)
# T1 construct: endogenous in cells; host or cells: Trypanosoma brucei procyclic form, whole-cell lysate
# Assay: SILAC pull-down with resin-bound 13, competition by compound 2
# Format: binding
# Conditions: procyclic lysate; compound 2 10 μM vs DMSO; mean of three experiments
# Description: Chemical proteomic studies were carried out by immobilizing an analogue of compound 2 (probe 13; Figure 3A and Scheme 4) to magnetic beads via a polyethyleneglycol (PEG) linker. Appropriate attachment sites for the PEG linker were informed by the established structure–activity relationships within this series, and an advanced intermediate toward the final derivatized compound was screened against both bloodstream and procyclic forms of T. brucei to ensure that it retained potency. The analogue was immobilized by attachment to NHS-ester-activated paramagnetic beads. Activated beads were then incubated in SILAC (stable isotope labeling by amino acids in cell culture)-labeled T. brucei procyclic whole-cell lysates in the presence or absence of compound 2 (10 μM) with either “light-“ or “heavy”-labeled lysate. After combining the eluates from the beads and performing proteomic analyses, proteins that bound specifically to the diaminothiazole pharmacophore were distinguished from proteins that bound non-specifically to the beads by virtue of compound 2:DMSO tryptic peptide isotope ratios. As a result of these studies, four kinases and a cyclin were identified as specific binders of the compound 2-derivatized beads (Figure 3B and Table S11). It should be noted that of the four kinases identified, only CRK12 has been established as essential for survival of T. brucei.[14] […]
# T1 sequence (P07378 whole entry): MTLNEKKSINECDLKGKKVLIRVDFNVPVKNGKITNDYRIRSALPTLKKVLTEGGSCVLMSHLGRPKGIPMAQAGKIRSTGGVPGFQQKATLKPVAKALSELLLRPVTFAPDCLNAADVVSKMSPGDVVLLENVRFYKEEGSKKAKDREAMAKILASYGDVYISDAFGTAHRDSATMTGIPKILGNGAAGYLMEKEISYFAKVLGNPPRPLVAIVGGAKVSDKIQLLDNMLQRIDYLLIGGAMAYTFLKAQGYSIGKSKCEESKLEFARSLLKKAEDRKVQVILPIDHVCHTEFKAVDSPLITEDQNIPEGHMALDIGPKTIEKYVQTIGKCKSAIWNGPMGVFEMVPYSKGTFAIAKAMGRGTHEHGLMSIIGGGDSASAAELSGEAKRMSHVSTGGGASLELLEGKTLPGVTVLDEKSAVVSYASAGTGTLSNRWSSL
structure (smiles),measurement,value
"CC(C)CS(=O)(=O)N[C@H]1CC[C@H](Nc2nc(N)c(C(=O)c3c(F)cc(CN(C)C)cc3F)s2)CC1 [Compound 2, N-(trans)-[4-[[4-Amino-5-[4-(dimethylaminomethyl)-2,6-difluoro-benzoyl]thiazol-2-yl]amino]cyclohexyl]-2-methyl-propane-1-sulfonamide]",Log2 ratio DMSO/compound,1.92
